Measured values: patent US11951105B2 (Lake O'Hara LLC, priority 2020, dated 2024)

Key:
CYP3A4 = CYP3A4 (Homo sapiens, UniProt P08684); details: based on the literature; cited from earlier work
[1] = PBPK modeling of schizophrenia patients treated according to modified dosing regimens; design: species or system human; details: for Days Reduced to Reach Pharmacokinetic Endpoints: EC80 / Days Reduced to Reach Pharmacokinetic Endpoints: Steady State: modified regimen of Table F vs FDA label, Obese
Excerpt: In order to simulate brexpiprazole under various conditions, a whole-body PBPK model was constructed to capture the drug's kinetics in major tissues. Model tissue compartments included adipose, bone, brain, large intestine, small intestine, heart, kidney, liver, lung, muscle, spleen, stomach, and skin tissues, as well as venous and arterial blood compartments. In order to accurately capture first-pass clearance effects on the drug, the model also included correct representation of the gastrointestinal tract organs and the liver. […] Drug distribution into each tissue compartment was modeled assuming perfusion-limited kinetics, with partitioning into tissue described by a partition coefficient (Kp) estimated using methods described by Poulin and Theil (2002). Brexpiprazole-specific biochemical parameters such as the log of octanol:water partition coefficient (log P), negative log acid dissociation constant (pKa), fraction unbound in the plasma (fup), blood:plasma concentration ratio (BP), and clearance were obtained from literature; additional physiochemical properties used to calculate Kps were obtained via DrugBank. […] Simulations were carried out in a virtual population of 500 normal-weight and 500 obese individuals with age- and sex-specific physiological parameters (i.e. tissue flows and volumes) sampled from the National Health and Nutrition Examination Survey (NHANES) dataset.
PBPK Modeling of Schizophrenia Patients Treated with Higher Doses According to Modified Methods
A modified dosing regimen was developed so that obese and CYP2D6 PM patients reach therapeutic levels earlier (Table F). […] On day 8, patients returned to administering the recommended dose once daily. […] On day 15, patients returned to administering the recommended dose once daily.

CYP2D6 = details: cited from earlier work
[2] = cited from earlier work
[3] = brexpiprazole patients; cited from earlier work

CYP3A4, sequence (P08684 whole entry): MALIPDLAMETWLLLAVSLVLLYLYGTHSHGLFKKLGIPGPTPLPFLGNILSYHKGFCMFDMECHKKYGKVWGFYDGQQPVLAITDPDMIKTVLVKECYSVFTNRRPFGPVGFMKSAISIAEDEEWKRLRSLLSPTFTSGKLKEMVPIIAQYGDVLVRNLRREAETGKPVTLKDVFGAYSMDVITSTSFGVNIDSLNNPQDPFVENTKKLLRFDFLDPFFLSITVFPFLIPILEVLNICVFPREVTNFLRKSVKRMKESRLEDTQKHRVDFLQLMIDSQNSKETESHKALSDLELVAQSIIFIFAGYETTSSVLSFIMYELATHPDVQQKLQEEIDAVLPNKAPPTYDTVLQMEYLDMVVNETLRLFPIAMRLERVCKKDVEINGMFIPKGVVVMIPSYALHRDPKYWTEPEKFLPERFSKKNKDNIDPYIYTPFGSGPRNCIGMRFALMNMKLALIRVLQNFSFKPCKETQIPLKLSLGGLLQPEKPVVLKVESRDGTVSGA

Question: With O=c1ccc2ccc(OCCCCN3CCN(c4cccc5sccc45)CC3)cc2[nH]1 [brexpiprazole, 7-{4-[4-(1-Benzothiophen-4-yl)piperazin-1-yl]butoxy}quinolin-2(1H)-one] as the molecule, how does the “share of brexpiprazole clearance due to CYP3A4” value (CYP3A4) read?
Answer: 46.7%

Question: And the “Days Reduced to Reach Pharmacokinetic Endpoints: EC80” value ([1]; CYP2D6 EM)?
Answer: 3 days

Question: And the “Days Reduced to Reach Pharmacokinetic Endpoints: Steady State” value ([1]; CYP2D6 EM)?
Answer: -4 days

Question: What about the “Days Reduced to Reach Pharmacokinetic Endpoints: EC80” value ([1]; CYP2D6 PM) of the same molecule?
Answer: 5 days

Question: What about the “Days Reduced to Reach Pharmacokinetic Endpoints: Steady State” value ([1]; CYP2D6 PM) of the same molecule?
Answer: -29 days

Question: And the “days faster to reach therapeutic concentrations than once daily dosing” value ([1]; schizophrenia, normal-weight CYP2D6 PM, Modified Dosing Regimen 3)?
Answer: three

Question: And the “days faster to reach therapeutic concentrations than with FDA label dosing” value ([1]; schizophrenia, obese CYP2D6 EM, twice the daily doses for the first 7 days (Regimen 1))?
Answer: three

Question: What about the “days faster to reach therapeutic concentrations than once daily dosing” value ([1]; schizophrenia, obese CYP2D6 PM, twice the daily doses for the first 14 days (Regimen 2)) of the same molecule?
Answer: five

Question: And the “decrease of baseline clearance by CYP2D6 PM status” value (CYP2D6; CYP2D6 poor metabolizers)?
Answer: ~30%

Question: What about the “share of brexpiprazole clearance due to CYP2D6” value (CYP2D6; based on the literature) of the same molecule?
Answer: 43.3%

Question: What about the “share of brexpiprazole clearance due to other routes” value ([2]; based on the literature) of the same molecule?
Answer: 10%

Question: And the “effect of weight on the pharmacokinetics of brexpiprazole” value ([2]; previous studies)?
Answer: less than 20%

Question: What about the renal clearance ([2]; share of clearance, model assumption) of the same molecule?
Answer: ~1%

Question: What about the akathisia rates [3] of the same molecule?
Answer: dose-dependent
